In patent US11547112B2, “Solvents for agricultural applications and pesticide formulations” (Dow Global Technologies LLC, priority 2017, dated 2023):

Test: Solubility of pesticides in solvents (stepwise 2% increments of pesticide powder)
Conditions: highest concentration still dissolved, no more than 2% lower than actual solubility; for Solubility in Comparative Solvent B: solvent: diethylene glycol monoethyl ether; for Solubility in Comparative Solvent A: solvent: dimethyl sulfoxide (DMSO); for Solubility in Comparative Solvent C: solvent: ethyl 3-ethoxypropionate
Protocol: The solubility of various pesticides in these solvents are evaluated.
Each pesticide powder is added by solvent in 2% stepwise increments to the final pesticide concentration. Each pesticide reaches a concentration where the pesticide powder is not dissolved by the solvent.

SMILES	Solubility in Comparative Solvent B [weight %]	Solubility in Comparative Solvent A [weight %]	Solubility in Comparative Solvent C [weight %]
CC(C)(C)C(O)(CCc1ccc(Cl)cc1)Cn1cncn1 (stereo not drawn) [Tebuconazole]	26.5	32.3	16.0
CCCCC(C#N)(Cn1cncn1)c1ccc(Cl)cc1 (stereo not drawn) [Myclobutanil]	46.0	56.7	39.0
COC(=O)N(OC)c1ccccc1COc1ccn(-c2ccc(Cl)cc2)n1 [Pyraclostrobin]	33.0	40.0	47.0
CC(C)(C)C(=O)C(Oc1ccc(Cl)cc1)n1cncn1 (stereo not drawn) [Triazolone]	35.7	43.3	32.0
